# According to ChEMBL document CHEMBL3399947, “Structure activity relationship of selective GABA uptake inhibitors” (Bioorg Med Chem, 2015):
# Key:
# Assay type in all cases: cell-based
# [1] = molecular target: T1, GABA transporter 2 (Mus musculus, UniProt P31651); assay: Inhibition of mouse mGAT2 expressed in HEK293 cells assessed as inhibition of [3H]GABA uptake after 3 mins incubation by TopCount microplate scintillation counting analysis
# T1 sequence (P31651 whole entry): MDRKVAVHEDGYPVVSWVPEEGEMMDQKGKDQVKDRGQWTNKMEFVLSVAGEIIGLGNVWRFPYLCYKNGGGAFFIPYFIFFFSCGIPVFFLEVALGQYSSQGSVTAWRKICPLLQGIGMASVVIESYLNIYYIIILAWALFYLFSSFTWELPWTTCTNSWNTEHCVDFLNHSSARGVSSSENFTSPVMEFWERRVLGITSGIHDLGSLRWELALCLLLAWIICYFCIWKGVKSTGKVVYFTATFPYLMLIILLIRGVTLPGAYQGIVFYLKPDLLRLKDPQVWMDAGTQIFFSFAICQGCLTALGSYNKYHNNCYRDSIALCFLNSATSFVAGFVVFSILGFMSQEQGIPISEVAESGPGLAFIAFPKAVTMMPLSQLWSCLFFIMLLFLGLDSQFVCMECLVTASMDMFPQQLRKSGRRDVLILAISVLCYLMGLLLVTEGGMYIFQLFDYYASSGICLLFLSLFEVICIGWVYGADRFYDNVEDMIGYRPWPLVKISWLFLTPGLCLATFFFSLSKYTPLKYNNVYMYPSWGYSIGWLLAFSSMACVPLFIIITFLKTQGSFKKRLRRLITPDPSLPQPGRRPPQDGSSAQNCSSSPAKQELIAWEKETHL
# [2] = molecular target: T2, GABA transporter 4 (Mus musculus, UniProt P31650); assay: Inhibition of mouse mGAT4 expressed in HEK293 cells assessed as inhibition of [3H]GABA uptake after 3 mins incubation by TopCount microplate scintillation counting analysis; settings: read-out: IC50
# T2 sequence (P31650 whole entry): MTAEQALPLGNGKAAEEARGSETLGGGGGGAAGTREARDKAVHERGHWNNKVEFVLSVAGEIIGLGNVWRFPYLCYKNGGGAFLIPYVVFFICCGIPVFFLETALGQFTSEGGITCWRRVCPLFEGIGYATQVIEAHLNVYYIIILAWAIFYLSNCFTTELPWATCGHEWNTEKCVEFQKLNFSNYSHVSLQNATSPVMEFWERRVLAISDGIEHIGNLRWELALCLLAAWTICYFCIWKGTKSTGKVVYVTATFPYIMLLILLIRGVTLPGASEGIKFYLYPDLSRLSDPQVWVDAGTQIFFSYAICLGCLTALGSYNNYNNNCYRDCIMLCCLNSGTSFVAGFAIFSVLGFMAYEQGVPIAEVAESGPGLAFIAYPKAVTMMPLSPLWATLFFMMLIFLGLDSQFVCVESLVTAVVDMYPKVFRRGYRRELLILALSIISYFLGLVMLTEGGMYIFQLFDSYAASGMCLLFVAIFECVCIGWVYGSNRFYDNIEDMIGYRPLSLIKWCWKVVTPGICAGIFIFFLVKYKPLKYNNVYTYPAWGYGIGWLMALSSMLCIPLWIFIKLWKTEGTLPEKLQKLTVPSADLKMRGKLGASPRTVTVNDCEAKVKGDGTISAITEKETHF
# [3] = molecular target: T3, GABA transporter 3 (Mus musculus, UniProt P31649); assay: Inhibition of mouse mGAT3 expressed in HEK293 cells assessed as inhibition of [3H]GABA uptake after 3 mins incubation by TopCount microplate scintillation counting analysis
# T3 sequence (P31649 whole entry): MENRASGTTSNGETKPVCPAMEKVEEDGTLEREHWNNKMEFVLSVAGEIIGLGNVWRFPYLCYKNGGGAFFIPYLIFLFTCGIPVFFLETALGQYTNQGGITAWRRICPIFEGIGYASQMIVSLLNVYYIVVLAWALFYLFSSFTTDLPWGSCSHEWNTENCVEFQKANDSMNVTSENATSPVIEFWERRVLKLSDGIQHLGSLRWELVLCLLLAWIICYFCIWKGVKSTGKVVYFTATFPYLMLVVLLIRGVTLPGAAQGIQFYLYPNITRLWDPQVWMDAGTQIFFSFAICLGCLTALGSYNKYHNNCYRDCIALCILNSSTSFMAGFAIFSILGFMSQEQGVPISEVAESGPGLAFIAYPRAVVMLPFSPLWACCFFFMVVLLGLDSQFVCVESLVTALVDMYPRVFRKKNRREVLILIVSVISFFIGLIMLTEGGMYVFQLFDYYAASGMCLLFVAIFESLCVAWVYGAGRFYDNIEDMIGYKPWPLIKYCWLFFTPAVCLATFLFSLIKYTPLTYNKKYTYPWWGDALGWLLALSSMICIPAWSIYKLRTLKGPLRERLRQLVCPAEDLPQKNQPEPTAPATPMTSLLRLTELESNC
# [4] = molecular target: Sodium- and chloride-dependent GABA transporter 1 (Mus musculus, UniProt P31648); assay: Inhibition of mouse mGAT1 expressed in HEK293 cells assessed as inhibition of [3H]GABA uptake after 3 mins incubation by TopCount microplate scintillation counting analysis
SMILES,IC50 ([1]; read-out: IC50) [µM],IC50 [2] [µM],IC50 ([3]; read-out: IC50) [µM],IC50 ([4]; read-out: IC50) [µM],IC50 ([3]; read-out: pIC50 (converted)) [µM],IC50 ([1]; read-out: pIC50 (converted)) [µM],IC50 ([4]; read-out: pIC50 (converted)) [µM]
Cc1ccsc1C(=CCCN1CCN(CCO)CC(C(=O)O)C1)c1sccc1C (stereo unspecified),> 1000,> 1000,> 1000,> 1000,–,–,–
Cc1ccsc1C(=CCCN(C)[C@H]1CCCC[C@@H]1C(=O)O)c1sccc1C,62.2,263,478,264,–,–,–
Cc1ccsc1C(=CCCN(C)[C@H]1CCCC[C@H]1CO)c1sccc1C,27,146,168,215,–,–,–
O=C(O)CCNCCC=C1c2ccccc2CCc2ccccc21,1380,4060,3250,281,–,–,–
CCOC(=O)[C@H]1CCCC[C@H]1N(C)CCC=C(c1sccc1C)c1sccc1C,201,1220,654,604,646,–,–
Cc1ccsc1C(=CCCN(C)[C@@H]1CCCC[C@H]1C(=O)O)c1sccc1C,133,551,633,194,–,–,–
CN(CCOC(c1ccc(C(F)(F)F)cc1)c1ccc(C(F)(F)F)cc1)[C@H]1CCCC[C@H]1CO,133,181,328,359,–,–,–
CN(CCC=C1c2ccccc2CCc2ccccc21)C1CCCC=C1C(=O)O (stereo unspecified),81,821,687,425,–,–,537
O=C(O)C1CNCCN(CCON=C(c2ccccc2)c2ccccc2)C1 (stereo unspecified),> 1000,> 1000,> 1000,667,–,–,5250
O=C(O)C1CN(CCOC(c2ccc(C(F)(F)F)cc2)c2ccc(C(F)(F)F)cc2)CCN1 (racemic),401,1760,> 1000,83,–,–,–
Cc1ccsc1C(=CCCN1CCNCC(C(=O)O)C1)c1sccc1C (stereo unspecified),370,1740,844,43.8,–,–,–
O=C(O)CCNCc1cn(CCOC(c2ccc(C(F)(F)F)cc2)c2ccc(C(F)(F)F)cc2)nn1,> 1000,> 1000,> 1000,> 1000,–,–,–
CN(CCON=C(c1ccccc1)c1ccccc1)[C@H]1CCCC[C@H]1CO,49.1,136,295,415,–,–,–
CN(CCON=C(c1ccccc1)c1ccccc1)[C@@H]1CCCC[C@@H]1CO,76.6,341,349,426,–,77.6,–
CCOC(=O)[C@@H]1CCCC[C@@H]1N(C)CCOC(c1ccc(C(F)(F)F)cc1)c1ccc(C(F)(F)F)cc1,417,1470,652,508,–,–,–
Cc1ccsc1C(=CCCN(C)C1CCCC=C1C(=O)O)c1sccc1C (stereo in doubt; (E2)-6a),67,413,584,403,–,–,–
Cc1ccsc1C(=CCCN1CCNCC1C(=O)O)c1sccc1C (racemic),1400,883,1660,195,–,–,–
CCOC(=O)[C@H]1CCCC[C@H]1N(C)CCC=C1c2ccccc2CCc2ccccc21,444,> 1000,1400,1190,1740,–,–
Cc1ccsc1C(=CCCN(C)[C@@H]1CCCC[C@@H]1C(=O)O)c1sccc1C,94.9,380,328,917,–,–,–
O=C(O)C1CN(CCON=C(c2ccccc2)c2ccccc2)CCN1 (racemic),> 1000,> 1000,> 1000,216,–,–,–

# The next lines start with results.
IC50 ([1]; read-out: IC50) [µM],IC50 [2] [µM],IC50 ([3]; read-out: IC50) [µM],IC50 ([4]; read-out: IC50) [µM],IC50 ([3]; read-out: pIC50 (converted)) [µM],IC50 ([1]; read-out: pIC50 (converted)) [µM],SMILES,IC50 ([4]; read-out: pIC50 (converted)) [µM]
> 1000,> 1000,> 1000,> 1000,–,–,Cc1ccsc1C(=CCCN1CCN(CCON=C(c2ccccc2)c2ccccc2)CC(C(=O)O)C1)c1sccc1C (stereo unspecified),–
63.1,539,336,445,–,–,CN(CCOC(c1ccc(C(F)(F)F)cc1)c1ccc(C(F)(F)F)cc1)[C@@H]1CCCC[C@@H]1C(=O)O,–
318,> 1000,1700,483,–,–,CCN1CCN(CCC=C(c2sccc2C)c2sccc2C)CC(C(=O)O)C1 (stereo unspecified),–
76.7,468,765,170,–,–,Cc1ccsc1C(=CCCN(C)C1CCCC=C1C(=O)O)c1sccc1C (stereo in doubt; (E1)-6a),–
125,844,985,972,–,–,CN(CCC=C1c2ccccc2CCc2ccccc21)[C@@H]1CCCC[C@H]1C(=O)O (racemic),–
375,1670,1340,1370,–,–,CCOC(=O)[C@@H]1CCCC[C@@H]1N(C)CCC=C1c2ccccc2CCc2ccccc21,–
7520,768,674,9.7,–,–,CN(CCON=C(c1ccccc1)c1ccccc1)CCC(=O)O,–
217,835,602,801,–,–,CCOC(=O)[C@@H]1CCCC[C@@H]1N(C)CCC=C(c1sccc1C)c1sccc1C,–
> 2000,> 2000,> 2000,> 2000,–,–,Cc1ccsc1C(=CCCn1cc(CNCCC(=O)O)nn1)c1sccc1C,–
